Test results as given in patent US6485975B1, “Method for regenerating viable and fertile citrus plants by tissue culture from explants” (Council of Scientific and Industrial Research, priority 2000, dated 2002).
“And” between values parts separate entries of the source, which are not always exact repeats. Identical values can stand only once.

Columns and labels:
[1] = test system: meristem-regenerated shoots of Citrus aurantifolia; assay: Root induction in meristem-regenerated shoots of Citrus aurantifolia; format: cell-based; conditions: 0.25 mg l^-1 of the auxin, used with 1 mg l^-1 chlorogenic acid
Description: (§1) h) rooting of the isolated well-developed shoots of C. aurantifolia to the extent of 100% in 15 days, and of C. sinensis to the extent of 90% in 25 days, in agarified media-E and F respectively.
The meristem-regenerated well-developed shoots of C. aurantifolia easily rooted in medium-E (Table I) selected on the basis of the formulations used earlier during the investigations on Citrus tissue culture in this Laboratory (Chaturvedi, H. C. 1979. Tissue culture of economic plants. In: Progress in Plant Research. Eds. T. N. Khoshoo and P. K. K. Nair, Today and Tomorrow's Publisher, New Delhi, Vol.1, pp.265-288; Chaturvedi, H. C. and Sharma, A. K. 1988. Citrus tissue culture. In: Proc. Natl. Seminar on Plant Tissue Culture, I.C.A.R., New Delhi, pp.36-46). The basic differences of the root inducing media from the shoot proliferation media of Citrus are, comparatively lower concentrations of nitrogen, calcium and magnesium in the former. […] Even its shoots raised from seedling explants have been reported to be intractable-to-root in vitro (Duran-vila, N., Ortega, V. and Navarro, L. 1989. Morphogenesis and tissue cultures of three citrus species. Plant Cell, Tissue and Organ Culture, 16: 123-133).

[2] = test system: meristem-regenerated shoots of C. sinensis; assay: Root induction in meristem-regenerated shoots of C. sinensis; format: cell-based, Citrus sinensis; conditions: same treatments as for C. aurantifolia (0.25 mg l^-1 auxin, 1 mg l^-1 chlorogenic acid)
Description: as §1
The medium-E, which was found effective for inducing desirable rooting in a number of Citrus species, including its rootstocks, when was found deficient for promoting root induction in the presence of multiple combinations of auxins, viz., IAA. IPA, IBA and NAA without or with phenolic acids, namely, phloroglucinol and chlorogenic acid, it was variously modified. The modifications included, increase in the concentrations of thiamine-HCl, pyridoxine-HCl and nicotinic acid to 2.5, 0.5 and 0.5 mg 1^−1, respectively, addition of some other root promoting vitamins, like, riboflavin, folic acid and d-biotin at the concentration of 0.1 mg 1^−1 each as also 15 mg 1^−1 L-arginine.
The rooting responses of well-developed isolated shoots of C. sinensis to various auxins used without and with phenolic acids employing the medium-E (Table I) devoid of auxins and the phenolic acid as the basal medium, are presented in Table 3. A combination of three auxins, namely, IAA, NAA and IPA along with a phenolic acid, namely, chlorogenic acid or phloroglucinol was essential for root induction.

[3] = test system: isolated shoots of C. sinensis; assay: Proliferation of isolated shoots of C. sinensis; format: cell-based, Citrus sinensis; conditions: for Condition of shoots / Growth of regenerated shoots Length in cm: 30 days; for No. of off-shoots regenerated: culture period 30 days, mean of 5 cultures ± S.E.
Description: (§2) g) proliferating the meristem-regenerated 1.5-cm-long shoots of C. aurantifolia and C. sinensis by repeated subculture in medium-A and medium-B, respectively to obtain well-developed shoots to the extent of an average 10 shoots and 6 shoots, respectively, within 4 subcultures of 30 days each,
(§3) Proliferation of Isolated Shoots Obtained from Regenerated Nodal Stem Segments of Mature Field-grown Trees of Citrus aurantifolis and C. sinensis
(§4) Proliferation of isolated shoots was obtained in presence of BAP and an auxin, LAA or NAA employing the medium-A (Table I) for C. aurantifolia, and medium-B (Table I) for C. sinensis, but not vice-versa, where both media A and B, devoid of growth hormones comprised the basal media. […] Responses of the isolated shoots to some selected combinations of BAP with IAA or NAA are given in the Table 1, which lead to the selection of specific nutrient media for optimum proliferation of shoots of these two Citrus species.
Likewise, 0.25 mg 1^−1 concentration of BAP and 0.5 mg 1^−1 of NAA were selected comprising the medium-B for optimum proliferation of shoots of C. sinensis in view of the same two criteria, viz., moderately high number of offshoot production with good growth and their differentiation without any intervening callusing.

[4] = test system: isolated shoots of Citrus aurantifolia; assay: Proliferation of isolated shoots of Citrus aurantifolia; format: cell-based; conditions: for Condition of shoots / Growth of regenerated shoots Length in cm: 30 days; for No. of off-shoots regenerated: culture period 30 days, mean of 5 cultures ± S.E.
Description: as §2, §3, §4
The maximum number of offshoots produced per explant of a shoot tip of C. aurantifolia was 7 in 0.75 mg 1^−1 BAP and 0.25 mg 1^−1 IAA, however, the shoots not only were restricted in growth, but also substantial intervening callus was formed. Similarly, in the concentrations of 0.5 and 1.0 mg 1^−1 BAP, particularly the second aspect of response remained equally prominent, i.e., growth restriction of offshoots and intervening callusing during their differentiation. […] Thus, the 0.25 mg 1^−1 concentration of both BAP and IAA was selected comprising the medium-A for proliferation of isolated shoots originally regenerated from nodal stem segments of mature field-grown trees of C. aurantifolia.

[5] = test system: excised shoot meristems of Citrus aurantifolia and C. sinensis; assay: Growth of excised shoot meristems, both Citrus species not distinguished; format: cell-based
Description: e) excising the meristem domes along with youngest 2-3 leaf primordia ranging in length between 0.2-0.5 mm from the aseptically grown shoots followed by their culture on the liquid medium-C under the same controlled light and temperature conditions as in step (c) at least for a period of 15 days to let them attain a length of ca. 8 mm, f) subculturing the meristem-regenerated shoots on filter paper bridge employing liquid medium-D in order to obtain healthy shoots of an average length of about 1.5 cm without intervening callusing within a period of 20-25 days, Since for growth, an excised shoot meristem may require exogenous supply of mainly three growth hormones, viz., a cytokinin, an auxin and a gibberellin, these were provided individually at 3 concentrations (mg 1^−1) each and in certain combinations as given below using the medium-C (Table I) devoid of IAA and GA as the basal medium: 0.1 BAP; 0.25 BAP; 0.5 BAP; 0.1 IAA; 0.25 IAA; 0.5 IAA: 5 GA; 10 GA; 15 GA; 0.1 BAP+0.1 IAA; 0.25 BAP+0.1 IAA; 0.5 BAP+0.1 IAA; 5 GA+0.1 IAA; 10 GA+0.1 IAA and 15 GA+0.1 IAA. […] In the next step, on the basis of the responses obtained, shoot meristems were cultured in all the afore-said 3 concentrations of BAP (0.1, 0.25 and 0.5 mg 1^−1) or GA (5, 10 and 15 mg 1^−1) along with 0.1 mg 1^−1 IAA. […] In this treatment, growth of meristem on nutrient agar as well as in liquid medium using filter paper bridge was compared. Shoot meristems grew far better on filter paper bridge than on nutrient agar in the same treatment (table 3). […] Higher or lower than 0.1 mg 1^−1 concentrations of BAP were not conducive to normal growth of shoot meristems.

[6] = BAP (0.1, 0.25, 0.5 mg l^-1) or GA (5, 10, 15 mg l^-1) along with 0.1 mg l^-1 IAA
[7] = individually at lower concentrations: IAA 0.1 mg l^-1 or GA 5 mg l^-1

O=C(O)CCc1c[nH]c2ccccc12 [IPA, indole-3-propionic acid]
rooting [1]: Hundred percent | rooting [2]: did not root

c1ccc(CNc2ncnc3nc[nH]c23)cc1 [BAP, 6-benzylaminopurine]
Condition of shoots ([3]; BAP 0.1 mg l^-1 with 0.5 NAA): A few well- | Growth of regenerated shoots Length in cm ([3]; BAP 0.1 mg l^-1 with 0.5 NAA): 1.16 ± 0.27 cm | No. of off-shoots regenerated ([3]; BAP 0.1 mg l^-1 with 0.5 NAA): 1.8 ± 0.37 | Condition of shoots ([3]; BAP 0.25 mg l^-1 with 0.5 NAA): Well-developed | Growth of regenerated shoots Length in cm ([3]; BAP 0.25 mg l^-1 with 0.5 NAA): 1.65 ± 0.20 cm | No. of off-shoots regenerated ([3]; BAP 0.25 mg l^-1 with 0.5 NAA): 2.6 and 2.6 ± 0.24 | Condition of shoots ([3]; BAP 0.5 mg l^-1 with 0.5 NAA): Well-developed | Growth of regenerated shoots Length in cm ([3]; BAP 0.5 mg l^-1 with 0.5 NAA): 1.08 ± 0.12 cm | No. of off-shoots regenerated ([3]; BAP 0.5 mg l^-1 with 0.5 NAA): 3.4 ± 0.44 | Growth of regenerated shoots Length in cm ([3]; BAP 0.75 mg l^-1 with 0.5 NAA): 0.78 ± 0.10 cm | No. of off-shoots regenerated ([3]; BAP 0.75 mg l^-1 with 0.5 NAA): 3.2 ± 0.73 | Growth of regenerated shoots Length in cm ([3]; BAP 1.0 mg l^-1 with 0.5 NAA): 0.75 ± 0.08 cm | No. of off-shoots regenerated ([3]; BAP 1.0 mg l^-1 with 0.5 NAA): 2.0 ± 0.31 | Condition of shoots ([4]; BAP 0.1 mg l^-1 with 0.25 IAA): A few well-develop- | Growth of regenerated shoots Length in cm ([4]; BAP 0.1 mg l^-1 with 0.25 IAA): 1.44 ± 0.14 cm | No. of off-shoots regenerated ([4]; BAP 0.1 mg l^-1 with 0.25 IAA): 3.6 ± 0.40 | Condition of shoots ([4]; BAP 0.25 mg l^-1 with 0.25 IAA): Well-developed | Growth of regenerated shoots Length in cm ([4]; BAP 0.25 mg l^-1 with 0.25 IAA): 1.40 ± 0.13 cm | No. of off-shoots regenerated ([4]; BAP 0.25 mg l^-1 with 0.25 IAA): 5.8 and 5.8 ± 0.58 | Growth of regenerated shoots Length in cm ([4]; BAP 0.5 mg l^-1 with 0.25 IAA): 0.99 ± 0.10 cm | No. of off-shoots regenerated ([4]; BAP 0.5 mg l^-1 with 0.25 IAA): 5.4 ± 1.02 | Growth of regenerated shoots Length in cm ([4]; BAP 0.75 mg l^-1 with 0.25 IAA): 0.86 ± 0.08 cm | No. of off-shoots regenerated ([4]; BAP 0.75 mg l^-1 with 0.25 IAA): 7 and 7.0 ± 0.44 | Growth of regenerated shoots Length in cm ([4]; BAP 1.0 mg l^-1 with 0.25 IAA): 0.76 ± 0.10 cm | No. of off-shoots regenerated ([4]; BAP 1.0 mg l^-1 with 0.25 IAA): 5.6 ± 1.40 | response of shoot meristems [5, 6]: became abnormally thick | delay of necrosis of shoot meristem ([5]; BAP individually, particularly 0.1 mg l^-1): 10 to 15 days

O=C(O)Cc1cccc2ccccc12 [NAA, α-naphthalene-acetic acid]
rooting [1]: Hundred percent | rooting [2]: did not root

O=C(O)Cc1c[nH]c2ccccc12 [IAA, indole-3-acetic acid]
rooting [1]: Hundred percent | rooting [2]: did not root | response of shoot meristems [5, 7]: remained fresh with a little increase in their length

C=C1C[C@]23C[C@@]1(O)CC[C@H]2[C@@]12C=C[C@H](O)[C@@](C)(C(=O)O1)[C@H]2[C@@H]3C(=O)O [GA, gibberellic acid]
response of shoot meristems [5, 6]: registered some growth | response of shoot meristems [5, 7]: remained fresh with a little increase in their length

O=C(O)CCCc1c[nH]c2ccccc12 [IBA, indole-3-butyric acid]
rooting [1]: Hundred percent | rooting [2]: did not root
